Data from US20050245527A1, “Nitrogen containing heterocyclic compounds and medicines containing the same” (priority 2002, published 2005).

Key:
[1] = test system: left saphenous nerve of rats (ectopic firing); assay: Inhibition of ectopic firing; type: in vivo; conditions: Rattus norvegicus, iv; rats with cut left saphenous nerve, urethane anesthesia, compound via catheter in right cervical vein, number of firings in 10 seconds; read-out: Inhibition of ectopic firing (ID50)
Procedure: <Inhibition of Ectopic Firing>
(1) The inhibitory effect on ectopic firing was evaluated by the following method, with reference to Burchiel, K J., Exp. Neurol., 102, 249-253 (1988).
(2) The left saphenous nerve of rats, in which ectopic firing was observed, was cut near the knee joint, and approximately 3 mm was cut off to avoid reattachment of the cut nerve. After more than a week, the left saphenous nerve was exposed under urethane (1 g/kg body weight) anesthesia, and the proximal part up to approximately 1 cm from the cut site was detached from the surrounding tissue. A catheter was inserted in the right cervical vein beforehand for administration of the compound.
(3) The detached nerve was placed on a platinum hook electrode and wetted with liquid paraffin to avoid drying of the nerve. The electrode was connected to a microelectrode amplifier, and the change in potential was recorded from an oscilloscope through an A/D converter onto a computer. The recorded nerve firing was evaluated based on the number of firings in 10 seconds, using analyzing software (AcqKnowledge).

sodium channels = type: cell-based; conditions: read-out: IC50 (μM), sodium channel-inhibiting activity; rat fetal cultured hippocampal neurons, SBFI fluorescence in the presence of 4-aminopyridine, 5 minutes after addition, 1 μM tetrodotoxin = 100%

| Compound | ED50 [1] | IC50 (sodium channels) |
| --- | --- | --- |
| C[C@H]1C[C@@H](C(=O)Cc2ccccc2F)CCN1Cc1ncc[nH]c1=O (relative stereo) [Example 415, cis-3-[4-[2-(2-Fluorophenyl)acetyl]-2-methylpiperidino]methyl-1H-pyrazin-2-one] | < 0.5 mg/kg | 4.6 µM |
| Cc1ccc(-c2ccccc2)n1CC1(O)CCN(Cc2ccc[nH]c2=O)CC1 [Example 251, 3-[4-Hydroxy-4-(2-methyl-5-phenylpyrrol-1-yl)methyl-piperidino]methyl-1H-pyridin-2-one] | 0.5 to 1 mg/kg | 8.4 µM |
| O=c1[nH]ccnc1CN1CCC(F)(COc2ccccc2F)CC1 [Example 223, 3-[4-Fluoro-4-(2-fluorophenoxymethyl)piperidino]methyl-1H-pyrazin-2-one] | 0.5 to 1 mg/kg | 6 µM |
| Cc1ccccc1COC1CCN(Cc2ncc[nH]c2=O)CC1 [Example 152, 3-[4-(2-Methylbenzyloxy)piperidino]methyl-1H-pyrazin-2-one] | 0.5 to 1 mg/kg | 5.3 µM |
| O=c1[nH]ccnc1CN1CCC(COc2ccccc2C(F)(F)F)CC1 [Example 164, 3-[4-[2-(Trifluoromethyl)phenoxymethyl]piperidino]methyl-1H-pyrazin-2-one] | < 0.5 mg/kg | 3.3 µM |
| O=c1[nH]ccnc1CN1CCC(COc2ccccc2Cl)CC1 [Example 158, 3-[4-(2-Chlorophenoxymethyl)piperidino]methyl-1H-pyrazin-2-one] | < 0.5 mg/kg | 3.7 µM |
| O=c1[nH]ccnc1CN1CCC(CCc2cccc3ccoc23)CC1 [Example 146, 3-[4-[2-(Benzofuran-7-yl)ethyl]piperidino]methyl-1H-pyrazin-2-one] | < 0.5 mg/kg | 2 µM |
| Cc1ccccc1CC(=O)C1CCN(Cc2ncc[nH]c2=O)CC1 [Example 184, 3-[4-[2-(2-Methylphenyl)acetyl]piperidino]methyl-1H-pyrazin-2-one] | < 0.5 mg/kg | 2.9 µM |
| O=c1[nH]ccnc1CN1CCC(CCc2ccccc2F)(COc2ccccc2F)CC1 [Example 224, 3-[4-(2-Fluorophenoxymethyl)-4-[2-(2-fluorophenyl)ethyl]piperidino]methyl-1H-pyrazin-2-one] | 0.5 to 1 mg/kg | 1.6 µM |
| Cc1ccccc1OCC1(O)CCN(Cc2ncc[nH]c2=O)CC1 [Example 210, 3-[4-Hydroxy-4-(2-methylphenoxymethyl)piperidino]methyl-1H-pyrazin-2-one] | 0.5 to 1 mg/kg | 6 µM |
| O=c1[nH]cccc1CN1CC2CCCC(C1)C2/C=C/c1ccccc1F (stereo not drawn) [Example 129, anti-(E)-3-[9-[2-(2-Fluorophenyl)vinyl]-3-azabicyclo[3.3.1]non-3-yl]methyl-1H-pyridin-2-one] | 0.5 to 1 mg/kg | 2.1 µM |
| O=c1[nH]ccnc1CN1CCC(/C=C/c2cccc(F)c2)CC1 [Example 176, (E)-3-[4-[2-(3-Fluorophenyl)vinyl]piperidino]methyl-1H-pyrazin-2-one] | 0.5 to 1 mg/kg | 5.4 µM |
| Cc1ccccc1OCC1(CCc2ccccc2F)CCN(Cc2ncc[nH]c2=O)CC1 [Example 225, 3-[4-[2-(2-Fluorophenyl)ethyl]-4-(2-methylphenoxymethyl)piperidino]methyl-1H-pyrazin-2-one] | 0.5 to 1 mg/kg | 1.6 µM |
| O=C(CC1CCN(Cc2ncc[nH]c2=O)CC1)c1sccc1Cl [Example 169, 3-[4-[2-(3-Chloro-2-thienyl)-2-oxoethyl]piperidino]methyl-1H-pyrazin-2-one] | 0.5 to 1 mg/kg | 3.5 µM |
| O=c1[nH]ccnc1CN1CCC(COc2cccc(F)c2)CC1 [Example 162, 3-[4-(3-Fluorophenoxymethyl)piperidino]methyl-1H-pyrazin-2-one] | 0.5 to 1 mg/kg | 4.6 µM |
| O=c1[nH]cccc1CN1CCC(F)(COc2ccccc2F)CC1 [Example 124, 3-[4-Fluoro-4-(2-fluorophenoxymethyl)piperidino]methyl-1H-pyridin-2-one] | < 0.5 mg/kg | 7.8 µM |
| CC1(C(=O)Cc2ccccc2C(F)(F)F)CCN(Cc2ncc[nH]c2=O)CC1 [Example 373, 3-[4-Methyl-4-[2-[2-(trifluoromethyl)phenyl]acetyl]piperidino]methyl-1H-pyrazin-2-one] | < 0.5 mg/kg | 1.6 µM |
| Cc1ccsc1/C=C/C1CCN(Cc2ncc[nH]c2=O)CC1 [Example 157, (E)-3-[4-[2-(3-Methyl-2-thienyl)vinyl]piperidino]methyl-1H-pyrazin-2-one] | < 0.5 mg/kg | 3.6 µM |
| COc1ccccc1CCC1CCN(Cc2ncc[nH]c2=O)C1.O=C(O)C(=O)O (centres unmarked) [Example 135, 3-[3-[2-(2-Methoxyphenyl)ethyl]pyrrolidino]methyl-1H-pyrazin-2-one oxalate] | < 0.5 mg/kg | 4 µM |

| Compound | ED50 [1] | IC50 (sodium channels) |
| --- | --- | --- |
| O=c1[nH]ccnc1CN1CCC(CCc2sccc2F)CC1 [Example 172, 3-[4-[2-(3-Fluoro-2-thienyl)ethyl]piperidino]methyl-1H-pyrazin-2-one] | 0.5 to 1 mg/kg | 5 µM |
| O=c1[nH]ccnc1CN1CCC(c2nc(-c3ccccc3F)no2)CC1 [Example 187, 3-[4-[3-(2-Fluorophenyl)-1,2,4-oxadiazol-5-yl]piperidino]methyl-1H-pyrazin-2-one] | 0.5 to 1 mg/kg | 3.5 µM |
| O=c1[nH]ccnc1CN1CCCC(CCc2ccccc2F)C1 (centres unmarked) [Example 156, 3-[3-[2-(2-Fluorophenyl)ethyl]piperidino]methyl-1H-pyrazin-2-one] | 0.5 to 1 mg/kg | 4.5 µM |
| O=c1[nH]c2ccccc2nc1CN1CCC(COc2ccccc2F)CC1 [Example 204, 3-[4-(2-Fluorophenoxymethyl)piperidino]methyl-1H-quinoxalin-2-one] | 0.5 to 1 mg/kg | 8.1 µM |
| O=c1[nH]ccnc1CN1CCC(COc2ccccc2F)CC1 [Example 142, 3-[4-(2-Fluorophenoxymethyl)piperidino]methyl-1H-pyrazin-2-one] | < 0.5 mg/kg | 4.2 µM |
| O=c1[nH]ccnc1CN1CCC(CCc2ccccc2F)CC1 [Example 177, 3-[4-[2-(2-Fluorophenyl)ethyl]piperidino]methyl-1H-pyrazin-2-one] | < 0.5 mg/kg | 4.5 µM |
| O=C(Cc1ccccc1Cl)C1CCN(Cc2ncc[nH]c2=O)CC1 [Example 183, 3-[4-[2-(2-Chlorophenyl)acetyl]piperidino]methyl-1H-pyrazin-2-one] | < 0.5 mg/kg | 2.6 µM |
| CC1(C(=O)Cc2ccccc2F)CCN(Cc2ncc[nH]c2=O)CC1 [Example 365, 3-[4-[2-(2-Fluorophenyl)acetyl]-4-methylpiperidino]methyl-1H-pyrazin-2-one] | < 0.5 mg/kg | 3.4 µM |
| O=C(O)C(=O)O.O=c1[nH]ccnc1CN1CCC(COc2ccccc2F)C1 (centres unmarked) [Example 132, 3-[3-(2-Fluorophenoxymethyl)pyrrolidino]methyl-1H-pyrazin-2-one oxalate] | 0.5 to 1 mg/kg | 6.2 µM |
| Cc1ccccc1/C=C/C1CCN(Cc2ncc[nH]c2=O)CC1 [Example 171, (E)-3-[4-[2-(2-Methylphenyl)vinyl]piperidino]methyl-1H-pyrazin-2-one] | < 0.5 mg/kg | 0.6 µM |
| Cc1cccc(OCC2CCN(Cc3ncc[nH]c3=O)CC2)c1 [Example 153, 3-[4-(3-Methylphenoxymethyl)piperidino]methyl-1H-pyrazin-2-one] | 0.5 to 1 mg/kg | 4.1 µM |
| CC(c1ncc[nH]c1=O)N1CCC(C(=O)Cc2ccccc2F)CC1 (centres unmarked) [Example 350, 3-[1-[4-[2-(2-Fluorophenyl)acetyl]piperidino]ethyl]-1H-pyrazin-2-one] | < 0.5 mg/kg | 6 µM |
| O=C(Cc1ccccc1F)C1CCCN(Cc2ncc[nH]c2=O)C1 (centres unmarked) [Example 208, 3-[3-[2-(2-Fluorophenyl)acetyl]piperidino]methyl-1H-pyrazin-2-one] | 0.5 to 1 mg/kg | 5.5 µM |
| Cc1ccc(-c2ccccc2)n1CC1(O)CCN(Cc2ncc[nH]c2=O)CC1 [Example 212, 3-[4-Hydroxy-4-(2-methyl-5-phenylpyrrol-1-yl)methyl-piperidino]methyl-1H-pyrazin-2-one] | 0.5 to 1 mg/kg | 6.1 µM |
| COc1ccccc1OCC1CCN(Cc2nc3ccccc3[nH]c2=O)CC1 [Example 205, 3-[4-(2-Methoxyphenoxymethyl)piperidino]methyl-1H-quinoxalin-2-one] | 0.5 to 1 mg/kg | 2.6 µM |
| COc1ccccc1C(=O)CC1CCN(Cc2ncc[nH]c2=O)CC1 [Example 145, 3-[4-[2-(2-Methoxyphenyl)-2-oxoethyl]piperidino]methyl-1H-pyrazin-2-one] | 0.5 to 1 mg/kg | 9.5 µM |
| Cc1ccccc1CCC1(O)CCN(Cc2ncc[nH]c2=O)CC1 [Example 222, 3-[4-Hydroxy-4-[2-(2-methylphenyl)ethyl]piperidino]methyl-1H-pyrazin-2-one] | 0.5 to 1 mg/kg | 2.5 µM |
| CCOc1ccccc1CC(=O)C1CCN(Cc2ncc[nH]c2=O)CC1 [Example 347, 3-[4-[2-(2-Ethoxyphenyl)acetyl]piperidino]methyl-1H-pyrazin-2-one] | < 0.5 mg/kg | 3 µM |
